Tests used:
in vitro = details: microsomes
Protocol: Experiments were conducted to determine the intrinsic clearance by substrate depletion for COMPOUND I metabolism in liver microsomes in the presence of NADPH and UDPGA. Incubations containing midazolam (0.2 μM with 0.1 mg/mL liver microsomes) or diclofenac (1 μM with 1 mg/mL liver microsomes) were also performed as positive controls for oxidative and glucuronidation activity, respectively. Sample preparation and incubation were performed on a MultiProbe IIEX Robotic Liquid Handling System (Perkin-Elmer, Shelton, Conn.) and a Micromix 5 (Packard, Downers Grove, Ill.). Samples were pre-incubated at 37° C. Control incubations were conducted under the same conditions without cofactors. At specified time points (0, 10, 20 and 30 min), 150 μL aliquots were transferred to tubes with 500 μL acetonitrile containing 30 ng/mL of the internal standard (furosemide) to precipitate the protein. Samples were centrifuged at 4° C. for 10 min at 3400 rpm (ThermoForma, Marietta, Ohio). The supernatant (400 μL) was transferred to a clean test tube and the acetonitrile evaporated under a stream of nitrogen in a Turbo Vap (Caliper Life Sciences, Hopkinton, Mass.). The samples were then reconstituted in 200 μL of 20% methanol in water and analyzed by LC/MS.
The HPLC system used was a Surveyor HPLC (Thermo Electron Corp., San Jose, Calif.). Separations were accomplished on a Supelcosil LC-C18 column (150×4.6 mm, 5 μm) (Supelco, Bellefonte, Pa.). The column temperature was maintained at ambient and the sample chamber was at 10° C. Mobile phase A was 5 mM ammonium acetate in water and mobile phase B was methanol.
The mass spectrometer used for microsomal stability analysis was a TSQ Quantum (Thermo Electron Corp.; San Jose, Calif.) equipped with an electrospray ionization (ESI) source and operated in the positive ionization mode.
Peak area ratios for COMPOUND I against the internal standard were used to express the % remaining at given time points. The percent of remaining COMPOUND I was calculated by dividing the […]. In vitro intrinsic clearance (CLint) of COMPOUND I was calculated by linear regression of log % remaining vs time plots using Microsoft Excel, 7.0 and normalizing to mg protein content. Metabolic half-life (t1/2) was calculated by dividing 0.693 by the intrinsic clearance.

[1] = Turnover to metabolites in cryopreserved hepatocytes; details: hepatocytes, 20 μM
Protocol: Chromatographic analyses were performed with a Waters Alliance model 2695 HPLC system (Waters Corp., Milford, Mass.) that was equipped with a built-in autosampler. The column eluent was monitored with a model 996 diode array UV detector, set to monitor 250 nm, and a FloOne β Model A525 radioactivity flow detector (Perkin Elmer) with a 250 μL flow cell. Separation of the parent compound from metabolites was accomplished using a Discovery C18 column, 250×4.6 mm, 5 μm (Supelco, Bellefonte, Pa.) at an ambient temperature of approximately 20° C. Mobile phase A was 10 mM ammonium acetate (pH 4.5) and mobile phase B was acetonitrile and they were delivered at 1 mL/min using the gradient described in Table 10. The Ultima Flo M scintillant flow rate was 3 mL/min.
Flo-One analytical software (version 3.65) was utilized to integrate the radioactive peaks. Means and standard deviations were calculated using Microsoft Excel® 2000. Micromass MassLynx software (version 4.0, Waters Corp.) was used for control of LC/MS equipment and recording of data from LC/MS analyses.

Compound | half-life at 1 μM (in vitro; both, human) | microsomal CLint at 1 μM (in vitro; both, human) | half-life at 1 μM (in vitro; male, Sprague-Dawley, rat) | microsomal CLint at 1 μM (in vitro; male, Sprague-Dawley, rat) | half-life at 1 μM (in vitro; male, beagle, dog) | microsomal CLint at 1 μM (in vitro; male, beagle, dog) | half-life at 1 μM (in vitro; male, monkey) | microsomal CLint at 1 μM (in vitro; male, monkey) | average turnover to metabolites ([1]; both, human, 1 h) | average turnover to metabolites ([1]; both, human, 4 h) | average turnover to metabolites ([1]; dog, 1 h) | average turnover to metabolites ([1]; dog, 4 h) | average turnover to metabolites ([1]; male, rat, 1 h) | average turnover to metabolites ([1]; male, rat, 4 h)
COc1cc(N2CCN(C3CCN(c4ccc(F)c5cccnc45)CC3)CC2)c2ncccc2c1 [COMPOUND I, 5-Fluoro-8-{4-[4-(6-methoxyquinolin-8-yl)piperazin-1-yl]piperidin-1-yl}quinoline] | 7 min | 100 µL/min/mg | 2 min | 332 µL/min/mg | 13 min | 55 µL/min/mg | 2 min | 312 µL/min/mg | – | – | – | – | – | –
COc1cc(N2CCN(C3CCN(c4ccc(F)c5cccnc45)CC3)CC2)c2ncccc2c1 [[^14C]COMPOUND I, [piperazine-^14C(U)]-5-fluoro-8-(4-(4-(6-methoxyquinolin-8-yl)piperazin-1-yl)piperidin-1-yl)quinoline trisuccinate] | – | – | – | – | – | – | – | – | 13% | 18% | 8% | 12% | 32% | 38%

From patent US20080262228A1, “Metabolites of 5-fluoro-8- quinoline and methods of preparation and uses thereof” (Wyeth, priority 2006, published 2008)
